Results: patent US7381540B2, “Composition for measuring glucose having improved substrate specificity” (Toyo Boseki Kabushiki Kaisha, priority 2005, dated 2008)

What was measured:
modified PQQGDH [1] = experiment: Substrate specificity using glucose assay system (ferricyanide reduction, absorbance 420 nm); format: biochemical
Procedure: D-glucose+ferricyanide ion+PQQGDH D-glucono-1,5-lactone+ferrocyanide ion
Specificity to each substrate can be determined by changing D-glucose to other saccharides. The presence of the ferrocyanide ion produced by reduction of the ferricyanide ion was confirmed by measuring the decrease of absorbance at a wavelength of 420 nm by spectrophotometry.
A. […]
B. Potassium ferricyanide solution: 50 mM (0.165 g potassium ferricyanide (molecular weight: 329.25) dissolved in 10 ml of distilled water)
C. PQQGDH solution: 31000 U/ml (approx. 128 mg PQQGDH (Toyobo: GLD-331) dissolved in 5 ml of distilled water)
D. Substrate solution (D-glucose solution or maltose solution): 100 or 400 mM
• 1. The following reaction mixture was prepared in a light shielding bottle, and stored on ice (prepared at use). 48.2 mL of each buffer solution (pH6.5) (A) • 4.0 mL of potassium ferricyanide solution (B) • 0.19 mL of (C) • 2. 2.65 ml of the reaction mixture and 0.3 ml of additive were placed in a test tube (plastic) and pre-warmed for 5 minutes at 37° C. • 3. 0.15 ml of substrate solution (D) were added and mixed gently. • 4. The reduction in the absorbance relative to water at 420 nm was recorded for 1 to 3 minutes with a spectrophotometer while maintaining at a temperature of 37° C., and the ΔOD per minute was calculated from the initial linear portion of the curve (ΔOD test). At the same time, the same procedure was carried out with the exception of adding distilled water instead of glucose solution followed by measurement of the blank (ΔOD blank).
The above-mentioned procedure was carried out at each of the predetermined concentrations shown in Tables 1 to 3 using as additives succinic acid, adipic acid, suberic acid, pimeric acid, potassium chloride, ammonium chloride, diammonium hydrogen citrate, malonic acid, L-lysine, taurine, 3,3-dimethylglutaric acid, malic acid, glutaric acid, calcium glycerate, amino-n-butyric acid, sodium glycolate, sodium α-ketoglutarate, fumaric acid, glycerin, glutamic acid and serine. And the procedure was also carried out for those not containing additives to assess the effects of additives.
Variation in absorbance per unit time was determined by calculating ΔOD/min(ΔOD test−ΔOD blank)
To evaluate whether activity had declined with respect to sugars other than glucose, the ΔOD/min (a) with D-glucose as the substrate solution and the ΔOD/min (b) with the other sugar in place of D-glucose as the substrate solution were measured, and the relative value ((b)/(a)×100) was calculated given 100 as the measurement value with glucose as the substrate.
In each of Tables 3 to 5, in the case the value of the ratio of measured values of maltose and glucose (maltose/glucose) relative to the control (control: no addition) is small, activity with respect to maltose during glucose measurement decreases.

modified PQQGDH [2] = experiment: as above; format: biochemical; details: potassium phosphate buffer pH 7.0
modified PQQGDH [3] = experiment: Maltose activity of glucose electrode loaded with modified PQQGDH (oxidation current, potassium ferricyanide mediator); format: biochemical, Acinetobacter baumannii strain NCIMB11517; details: for Maltose Activity of Glucose Electrode: 50 mM solvent, 1 mM calcium chloride, 0.1% Triton X-100; for Maltose Activity (%): solute 50 mM, pH 5.5, glucose or maltose 4 mM, 0.1 M potassium ferricyanide, +0.35 V, 25° C.
Procedure: 0.5 g of carbon graphite were placed in a mortar followed by the addition of 0.3 ml of liquid paraffin and kneading with a pestle for 30 minutes to produce a carbon paste. The resulting carbon paste was spread onto a platinum electrode followed by the addition of 10 μl of the modified PQQGDH solution (2,000 U/ml) produced in Example 2 and air drying for 30 minutes at room temperature. A cut cellulose semi-permeable membrane (molecular weight: 8,000) was placed over the dried enzyme electrode and the semi-permeable membrane was immobilized with plastic O-rings. The glucose electrode produced in this manner was then used after preliminarily immersing in the cold reaction solvent for 30 minutes.
The substances listed in Table 1 were used as solutes, and buffers were respectively prepared having a final concentration of 50 mM (pH 5.5). Each of the solvents contained an activator/stabilizer in the form of calcium chloride at 1 mM and surfactant in the form of 0.1% Triton X-100 in addition to the solute listed in Table 1. Potassium ferricyanide was dissolved in each of the produced solvents to a concentration of 0.1 M to prepare reaction solutions.
50 mM phosphoric acid or pimeric acid solution containing 1 mM calcium chloride and 0.1% Triton X-100 (consisting of three types having pH values of 5.0, 6.0 and 7.0, respectively) were prepared. Maltose activity of the glucose electrode was investigated for each according to the method of Example 5.

[4] = glutaric acid buffer pH 7.0, reagent 1%, substrate 4.8 mM, control 0.86
[5] = glutaric acid buffer pH 7.0, reagent 1%, substrate 19.2 mM, control 0.94
[6] = phthalic acid buffer pH 7.0, reagent 0.5%, substrate 4.8 mM, control 0.72
[7] = phthalic acid buffer pH 7.0, reagent 0.5%, substrate 19.2 mM, control 0.75
[8] = phthalic acid buffer pH 7.0, reagent 1%, substrate 4.8 mM, control 0.72
[9] = phthalic acid buffer pH 7.0, reagent 1%, substrate 19.2 mM, control 0.75
[10] = phthalic acid buffer pH 7.0, reagent 2%, substrate 4.8 mM, control 0.72
[11] = phthalic acid buffer pH 7.0, reagent 2%, substrate 19.2 mM, control 0.75
[12] = glutaric acid buffer pH 7.0, reagent 0.1%, substrate 4.8 mM, control 0.86
[13] = glutaric acid buffer pH 7.0, reagent 0.1%, substrate 19.2 mM, control 0.94

Structure (SMILES): Cl.N [Ammonium chloride]
- Maltose/glucose ratio (modified PQQGDH [1]; [4]): 0.56
- Maltose/glucose ratio (modified PQQGDH [1]; [5]): 0.71
- Maltose/glucose ratio (modified PQQGDH [1]; [6]): 0.60
- Maltose/glucose ratio (modified PQQGDH [1]; [7]): 0.67
- Maltose/glucose ratio (modified PQQGDH [1]; [8]): 0.57
- Maltose/glucose ratio (modified PQQGDH [1]; [9]): 0.59
- Maltose/glucose ratio (modified PQQGDH [1]; [10]): 0.52
- Maltose/glucose ratio (modified PQQGDH [1]; [11]): 0.52
- Maltose/glucose ratio (modified PQQGDH [1]; potassium phosphate buffer pH 7.0, reagent 0.5%, substrate 19.2 mM, control 0.93): 0.91
- Maltose/glucose ratio (modified PQQGDH [1]; potassium phosphate buffer pH 7.0, reagent 1%, substrate 19.2 mM, control 0.93): 0.84
- Maltose/glucose ratio (modified PQQGDH [2]; reagent 0.5%, substrate 4.8 mM, control 0.85): 0.72
- Maltose/glucose ratio (modified PQQGDH [2]; reagent 1%, substrate 4.8 mM, control 0.85): 0.58
- Maltose/glucose ratio (modified PQQGDH [2]; reagent 2%, substrate 4.8 mM, control 0.85): 0.43
- Maltose/glucose ratio (modified PQQGDH [2]; reagent 2%, substrate 19.2 mM, control 0.93): 0.70

Structure (SMILES): O=P(O)(O)O [Phosphoric acid, reference compound]
- Maltose Activity of Glucose Electrode (modified PQQGDH [3]; pH 5.0): 23.7%
- Maltose Activity of Glucose Electrode (modified PQQGDH [3]; pH 6.0): 36.8%
- Maltose Activity of Glucose Electrode (modified PQQGDH [3]; pH 7.0): 50.8%
- Maltose Activity (%) (modified PQQGDH [3]): 28.0%

Structure (SMILES): O=C(O)CCC(=O)C(=O)O [2-ketoglutaric acid]
- Maltose Activity (%) (modified PQQGDH [3]): 19.3%

Structure (SMILES): CC[C@H](N)C(=O)O [L-2-amino-n-butyric acid]
- Maltose/glucose ratio (modified PQQGDH [1]; [4]): 0.76
- Maltose/glucose ratio (modified PQQGDH [1]; [5]): 0.92

Structure (SMILES): O=C(O)CC(=O)O [Malonic acid]
- Maltose/glucose ratio (modified PQQGDH [1]; [4]): 0.68
- Maltose/glucose ratio (modified PQQGDH [1]; [5]): 0.84
- Maltose/glucose ratio (modified PQQGDH [1]; [6]): 0.74
- Maltose/glucose ratio (modified PQQGDH [1]; [7]): 0.58
- Maltose/glucose ratio (modified PQQGDH [1]; [8]): 0.77
- Maltose/glucose ratio (modified PQQGDH [1]; [9]): 0.57
- Maltose/glucose ratio (modified PQQGDH [1]; [10]): 0.82
- Maltose/glucose ratio (modified PQQGDH [1]; [11]): 0.63
- activity with respect to maltose compared with the control (in words) (modified PQQGDH [1]; substrate concentration of 4.8 mM, in some cases): did not decrease
- Maltose Activity (%) (modified PQQGDH [3]): 23.2%

Structure (SMILES): O=C(O)CCCCC(=O)O [Adipic acid]
- Maltose/glucose ratio (modified PQQGDH [1]; [12]): 0.73
- Maltose/glucose ratio (modified PQQGDH [1]; [13]): 0.84
- Maltose/glucose ratio (modified PQQGDH [1]; [4]): 0.43
- Maltose/glucose ratio (modified PQQGDH [1]; [5]): 0.67
- Maltose/glucose ratio (modified PQQGDH [1]; phthalic acid buffer pH 7.0, reagent 0.05%, substrate 4.8 mM, control 0.72): 0.66
- Maltose/glucose ratio (modified PQQGDH [1]; phthalic acid buffer pH 7.0, reagent 0.05%, substrate 19.2 mM, control 0.75): 0.68
- Maltose/glucose ratio (modified PQQGDH [1]; phthalic acid buffer pH 7.0, reagent 0.1%, substrate 4.8 mM, control 0.72): 0.65
- Maltose/glucose ratio (modified PQQGDH [1]; phthalic acid buffer pH 7.0, reagent 0.1%, substrate 19.2 mM, control 0.75): 0.64
- Maltose/glucose ratio (modified PQQGDH [1]; phthalic acid buffer pH 7.0, reagent 0.2%, substrate 4.8 mM, control 0.72): 0.65
- Maltose/glucose ratio (modified PQQGDH [1]; phthalic acid buffer pH 7.0, reagent 0.2%, substrate 19.2 mM, control 0.75): 0.58
- Maltose Activity (%) (modified PQQGDH [3]): 20.7%

Structure (SMILES): [Cl-].[K+] [Potassium chloride]
- Maltose/glucose ratio (modified PQQGDH [1]; [6]): 0.66
- Maltose/glucose ratio (modified PQQGDH [1]; [7]): 0.71
- Maltose/glucose ratio (modified PQQGDH [1]; [8]): 0.67
- Maltose/glucose ratio (modified PQQGDH [1]; [9]): 0.64
- Maltose/glucose ratio (modified PQQGDH [1]; [10]): 0.60
- Maltose/glucose ratio (modified PQQGDH [1]; [11]): 0.60

Structure (SMILES): O=C(O)c1ccccc1C(=O)O [Phthalic acid]
- Maltose Activity (%) (modified PQQGDH [3]): 4.9%

Structure (SMILES): O=C(O)CC(O)C(=O)O (racemic) [D,L-malic acid]
- Maltose/glucose ratio (modified PQQGDH [1]; [12]): 0.57
- Maltose/glucose ratio (modified PQQGDH [1]; [13]): 0.77
- Maltose/glucose ratio (modified PQQGDH [1]; [4]): 0.34
- Maltose/glucose ratio (modified PQQGDH [1]; [5]): 0.40
- Maltose Activity (%) (modified PQQGDH [3]): 18.9%

Structure (SMILES): NCC(=O)O [Glycine]
- Maltose/glucose ratio (modified PQQGDH [1]; [4]): 0.76
- Maltose/glucose ratio (modified PQQGDH [1]; [5]): 0.93
